Among the data in patent US20250230165A1, “HETEROCYCLIC COMPOUNDS FOR USE IN THE TREATMENT OF CANCER” (ARTIOS PHARMA LIMITED, priority 2021, published 2025) are Kinact/Kl values, retold here.

This experiment addresses T1, Human Polθ polymerase domain (aa1820-2590) (Homo sapiens, UniProt O75417).
T1 construct: Human Polθ polymerase domain (aa1820-2590) was expressed in E. coli; made in house; host or cells: E. coli
T1 sequence (O75417 1820-2590): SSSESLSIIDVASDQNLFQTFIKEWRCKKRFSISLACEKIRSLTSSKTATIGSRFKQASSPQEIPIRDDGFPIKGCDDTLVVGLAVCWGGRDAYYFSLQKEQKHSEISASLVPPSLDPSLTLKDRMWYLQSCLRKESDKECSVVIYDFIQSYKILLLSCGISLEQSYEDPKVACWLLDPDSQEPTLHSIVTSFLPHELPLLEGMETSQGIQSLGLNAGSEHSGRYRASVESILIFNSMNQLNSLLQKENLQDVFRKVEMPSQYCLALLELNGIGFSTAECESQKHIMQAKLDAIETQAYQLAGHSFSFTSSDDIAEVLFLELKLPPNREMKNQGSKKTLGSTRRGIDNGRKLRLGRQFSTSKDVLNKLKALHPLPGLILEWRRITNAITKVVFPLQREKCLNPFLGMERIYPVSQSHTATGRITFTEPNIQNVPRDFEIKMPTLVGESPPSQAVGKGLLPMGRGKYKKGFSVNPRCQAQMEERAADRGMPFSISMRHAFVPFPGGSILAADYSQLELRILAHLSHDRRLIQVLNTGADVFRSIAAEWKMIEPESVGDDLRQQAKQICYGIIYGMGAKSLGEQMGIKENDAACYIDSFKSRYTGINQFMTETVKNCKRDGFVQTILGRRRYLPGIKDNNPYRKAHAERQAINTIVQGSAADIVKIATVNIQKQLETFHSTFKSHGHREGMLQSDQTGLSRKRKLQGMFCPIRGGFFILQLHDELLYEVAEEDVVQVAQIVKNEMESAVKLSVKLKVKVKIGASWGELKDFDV
Nature of the experiment: Polθ Polymerase Domain Kinact/KI Assay (PicoGreen). In kind it is biochemical. Particulars: 0.8 nM Polθ, 100 nM DNA substrate, kobs vs [I] fit for 2-step covalent inhibitor. The gist of the method: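 Time-dependent inhibition was followed by quenching reactions with EDTA at points up to 60 min, then staining product DNA with PicoGreen fluorescence. Reactions held 0.8 nM E. coli-expressed Polθ, 100 nM primed DNA substrate and […] at pH 7.5, 1% DMSO. kobs versus inhibitor concentration gave Kinact and KI.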

`C=C(CO)C(=O)N1CCC(CCCN2C[C@H]3CC(=O)N(c4cc(C(F)(F)F)cc(C)n4)[C@@H]3C(=O)N(C)c3cccc(Cl)c32)CC1` [Example 168, (3aR,11aS)-6-chloro-5-(3-(1-(2-(hydroxymethyl)acryloyl)piperidin-4-yl)propyl)-10-methyl-1-(6-methyl-4-(trifluoromethyl)pyridin-2-yl)-1,3a,4,5,10,11a-hexahydro-2H-benzo[b]pyrrolo[2,3-f][1,4]diazocine-2,11(3H)-dione]: the Kinact/Kl was found to be 1.97e+06 M⁻¹ s⁻¹.

With `C#CC(=O)N1CCn2nc(CN3C[C@H]4CC(=O)N(c5cc(C(F)(F)F)cc(C)n5)[C@@H]4C(=O)N(C)c4cccc(C)c43)cc2C1` [Example 198, (3aR,11aS)-6,10-dimethyl-1-(6-methyl-4-(trifluoro-methyl)pyridin-2-yl)-5-((5-propiolo-yl-4,5,6,7-tetra-hydropyrazolo-[1,5-a]pyrazin-2-yl)methyl)-1,3a,4,5, 10,11a-hexahydro-2H-benzo[b]pyr-rolo[2,3-f][1,4] diazocine-2,11(3H)-dione], the Kinact/Kl is 700000 M⁻¹ s⁻¹. With `C=CC(=O)N1CC2(CN(CCN3C[C@H]4CC(=O)N(c5cc(C(F)(F)F)cc(C)n5)[C@@H]4C(=O)N(C)c4cccc(Cl)c43)CC(=O)N2C)C1` [Example 111, (3aR,11aS)-5-(2-(2-acryloyl-5-methyl-6-oxo-2,5,8-triazaspiro[3.5]nonan-8-yl)ethyl)-6-chloro-10-methyl-1-(6-methyl-4-(trifluoromethyl)pyridin-2-yl)-1,3a,4,5,10,11a-hexahydro-2H-benzo[b]pyrrolo[2,3-f][1,4]diazocine-2,11(3H)-dione], the Kinact/Kl amounted to 2.49e+06 M⁻¹ s⁻¹.

Compound `C/C=C(\CN(C)C)C(=O)N1CC(c2ccc(CN3C[C@H]4CC(=O)N(c5cc(C(F)(F)F)cc(C)n5)[C@@H]4C(=O)N(C)c4cccc(C)c43)cc2)C1` [Example 195, (3aR,11aS)-5-(4-(1-((E)-2-((dimeth-ylamino)methyl)-but-2-enoyl)azeti-din-3-yl)benzyl)-6,10-dimethyl-1-(6-methyl-4-(tri-fluoromethyl)pyr-idin-2-yl)-1,3a,4,5,10,11a-hexa-hydro-2H-benzo [b]pyrrolo[2,3-f] [1,4]diazocine-2,11(3H)-dione] returned a Kinact/Kl of 5.22e+06 M⁻¹ s⁻¹. `C=CC(=O)N1CC(c2nnc(CN3C[C@H]4CC(=O)N(c5cc(C(F)(F)F)cc(C)n5)[C@@H]4C(=O)N(C)c4cccc(F)c43)o2)C1` [Example 103, (3aR,11aS)-5-((5-(1-acryloylazetidin-3-yl)-1,3,4-oxadiazol-2-yl)methyl)-6-fluoro-10-methyl-1-(6-methyl-4-(trifluoromethyl)pyridin-2-yl)-1,3a,4,5,10,11a-hexahydro-2H-benzo[b]pyrrolo[2,3-f][1,4]diazocine-2,11(3H)-dione] displayed a Kinact/Kl of 1.6e+06 M⁻¹ s⁻¹. Compound `C#CC(=O)N1CC(F)(COCCN2C[C@H]3CC(=O)N(c4cc(C(F)(F)F)cc(C)n4)[C@@H]3C(=O)N(C)c3cccc(Cl)c32)C1` [Example 303, (3aR,11aS)-6-chloro-5-(2-((3-fluoro-1-propioloylazetidin-3-yl)methoxy)ethyl)-10-methyl-1-(6-methyl-4-(trifluoromethyl)pyridin-2-yl)-1,3a,4,5,10,11a-hexahydro-2H-benzo[b]pyrrolo[2,3-f][1,4]diazocine-2,11(3H)-dione] came in with a Kinact/Kl of 1.8e+06 M⁻¹ s⁻¹. For the compound `C=CC(=O)N1CCN(CCCN2C[C@H]3CC(=O)N(c4cc(C(F)(F)F)cc(C)n4)[C@@H]3C(=O)N(C)c3cccc(C)c32)CC1C(F)(F)F` (mixture of isomers) [Example 265a, (3aR,11aS)-5-(3-((S/R)-4-acryloyl-3-(trifluoromethyl)piperazin-1-yl)propyl)-6,10-dimethyl-1-(6-methyl-4-(trifluoromethyl)pyridin-2-yl)-1,3a,4,5,10,11a-hexahydro-2H-benzo[b]pyrrolo[2,3-f][1,4]diazocine-2,11(3H)-dione], the Kinact/Kl is 3.32e+06 M⁻¹ s⁻¹. As for `C=CC(=O)N1CCn2nc(CN3C[C@H]4CC(=O)N(c5cc(C(F)(F)F)cc(C)n5)[C@@H]4C(=O)N(C)c4cccc(C)c43)cc2C1` [Example 173, (3aR,11aS)-5-((5-acryloyl-4,5,6,7-tetrahydropyrazolo [1,5-a]pyrazin-2-yl)methyl)-6,10-dimethyl-1-(6-methyl-4-(trifluoro-methyl)pyridin-2-yl)-1,3a,4,5,10, 11a-hexahydro-2H-benzo[b]pyrrolo [2,3-f][1,4]diazo-cine-2,11(3H)-dione], the figure is 2.92e+06 M⁻¹ s⁻¹; as for `C=C(CN(C)C)C(=O)N1CCC(OCCN2C[C@H]3CC(=O)N(c4cc(C(F)(F)F)cc(C)n4)[C@@H]3C(=O)N(C)c3cccc(Cl)c32)CC1` [Example 157, (3aR,11aS)-6-chloro-5-(2-((1-(2-((dimethylamino)methyl)acryloyl)piperidin-4-yl)oxy)ethyl)-10-methyl-1-(6-methyl-4-(trifluoromethyl)pyridin-2-yl)-1,3a,4,5,10,11a-hexahydro-2H-benzo[b]pyrrolo[2,3-f][1,4]diazocine-2,11(3H)-dione], 1.57e+06 M⁻¹ s⁻¹. On to `C=CC(=O)N1C[C@H]2CN(CCN3C[C@H]4CC(=O)N(c5cc(C(F)(F)F)cc(C)n5)[C@@H]4C(=O)N(C)c4cccc(F)c43)CCN2C(=O)[C@@H]1C` (single isomer, unassigned) [Example 61], for which the Kinact/Kl amounted to 500000 M⁻¹ s⁻¹.

In the case of `Cc1cc(C(F)(F)F)cc(N2C(=O)C[C@@H]3CN(CCCCNC(=O)/C=C/CN(C)C)c4c(Cl)cccc4N(C)C(=O)[C@H]32)n1` [Example 252, (E)-N-(4-((3aR,11aS)-6-chloro-10-methyl-1-(6-methyl-4-(trifluoromethyl)pyridin-2-yl)-2,11-dioxo-1,2,3,3a,4,10,11,11a-octahydro-5H-benzo[b]pyrrolo[2,3-f][1,4]diazocin-5-yl)butyl)-4-(dimethylamino)but-2-enamide], the Kinact/Kl stood at 1.19e+06 M⁻¹ s⁻¹. The same measure for `C=CC(=O)N1Cc2ccc(CN3C[C@H]4CC(=O)N(c5cc(C(F)(F)F)cc(C)n5)[C@@H]4C(=O)N(C)c4cccc(Cl)c43)nc2[C@@H]1CC#N` (racemic) [Example 289b, 2-((S/R)-6-acryloyl-2-(((3aR,11aS)-6-chloro-10-methyl-1-(6-methyl-4-(trifluoromethyl)pyridin-2-yl)-2,11-dioxo-1,2,3,3a,4,10,11,11a-octahydro-5H-benzo[b]pyrrolo[2,3-f][1,4]diazocin-5-yl)methyl)-6,7-dihydro-5H-pyrrolo[3,4-b]pyridin-7-yl)acetonitrile]: 1.24e+06 M⁻¹ s⁻¹; for `C=CC(=O)N1CC(N2CC[C@H](CN3C[C@H]4CC(=O)N(c5cc(C(F)(F)F)cc(C)n5)[C@@H]4C(=O)N(C)c4cccc(F)c43)C2)C1` [Example 213, (3aR,11aS)-5-(((S)-1-(1-acryloylazetidin-3-yl)pyrrolidin-3-yl)methyl)-6-fluoro-10-methyl-1-(6-methyl-4-(trifluoromethyl)pyridin-2-yl)-1,3a,4,5,10,11a-hexahydro-2H-benzo[b]pyrrolo [2,3-f][1,4] diazocine-2,11(3H)-dione]: 1.08e+06 M⁻¹ s⁻¹.
